ChEMBL document CHEMBL1125953, “Probing the inhibition of leukotriene A4 hydrolase based on its aminopeptidase activity” (Bioorg Med Chem Lett, 1991)

What was measured:
[1] = biological target: T1, Leukotriene A-4 hydrolase (Homo sapiens, UniProt P09960); test: Inhibitory activity against Leukotriene A4 hydrolase from human leukocytes
T1 sequence (P09960 whole entry): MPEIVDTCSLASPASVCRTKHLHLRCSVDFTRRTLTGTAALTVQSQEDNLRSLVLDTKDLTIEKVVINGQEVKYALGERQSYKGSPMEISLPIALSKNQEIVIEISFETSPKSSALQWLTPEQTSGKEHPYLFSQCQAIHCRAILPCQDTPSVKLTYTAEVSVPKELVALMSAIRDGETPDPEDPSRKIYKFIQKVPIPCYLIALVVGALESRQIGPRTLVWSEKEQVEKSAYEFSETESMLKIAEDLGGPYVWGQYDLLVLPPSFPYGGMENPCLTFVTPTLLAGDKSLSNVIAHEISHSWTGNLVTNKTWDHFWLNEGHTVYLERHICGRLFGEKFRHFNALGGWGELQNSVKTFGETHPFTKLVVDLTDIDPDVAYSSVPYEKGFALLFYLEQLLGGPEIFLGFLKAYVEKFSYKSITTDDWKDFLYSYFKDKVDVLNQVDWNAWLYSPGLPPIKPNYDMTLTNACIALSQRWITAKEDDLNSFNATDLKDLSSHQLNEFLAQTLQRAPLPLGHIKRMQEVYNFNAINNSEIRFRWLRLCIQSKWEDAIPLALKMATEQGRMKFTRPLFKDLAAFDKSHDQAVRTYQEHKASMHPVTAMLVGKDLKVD

[2] = Ratio of catalytic constant to that of Michaelis-Menten constant for LTA4 hydrolase-catalyzed hydrolysis was determined
[3] = biological target: T1, Leukotriene A-4 hydrolase; test: Compound was tested for inhibitory activity against Leukotriene A4 hydrolase from human leukocytes; NI means no inhibition at 1 mM
[4] = substrate: CCCCC/C=C\C/C=C\C=C\C=C\[C@@H]1O[C@H]1CCCC(=O)O; test: (§1) Maximum velocity of amino acid amides was tested as substrates for Leukotriene A4 hydrolase catalyzed hydrolysis
[5] = substrate: CC(C)C[C@H](N)C(=O)Nc1ccc([N+](=O)[O-])cc1; test: as §1
[6] = substrate: NC(N)=NCCC[C@@H](N)C(=O)Nc1ccc([N+](=O)[O-])cc1; test: as §1
[7] = substrate: O=C(Nc1ccc([N+](=O)[O-])cc1)[C@@H]1CCCN1; test: as §1
[8] = substrate: C[C@H](N)C(=O)Nc1ccc([N+](=O)[O-])cc1; test: Maximum velocity of amino acid amides was tested as substrates for Leukotriene A4 hydrolase
[9] = substrate: C[C@@H](N)C(=O)Nc1ccc([N+](=O)[O-])cc1; test: (§2) Maximum velocity of amino acid amides was tested as substrates for LTA4 hydrolase-catalyzed hydrolysis
[10] = substrate: NCCCC[C@@H](N)C(=O)Nc1ccc([N+](=O)[O-])cc1; test: as §2
[11] = substrate: CCCCC/C=C\C/C=C\C=C\C=C\[C@@H]1O[C@H]1CCCC(=O)O; test: (§3) Michaelis-Menten constant of compound for Leukotriene A4 hydrolase catalyzed hydrolysis was determined
[12] = substrate: C[C@@H](N)C(=O)Nc1ccc([N+](=O)[O-])cc1; test: as §3
[13] = substrate: CC(C)C[C@H](N)C(=O)Nc1ccc([N+](=O)[O-])cc1; test: as §3
[14] = substrate: NC(N)=NCCC[C@@H](N)C(=O)Nc1ccc([N+](=O)[O-])cc1; test: as §3
[15] = substrate: NCCCC[C@@H](N)C(=O)Nc1ccc([N+](=O)[O-])cc1; test: as §3
[16] = substrate: O=C(Nc1ccc([N+](=O)[O-])cc1)[C@@H]1CCCN1; test: as §3

N[C@@H](Cc1ccccc1)[C@H](O)C(=O)NCCC(=O)O
IC50 [1]: ~80 µM

O=C(Nc1ccc([N+](=O)[O-])cc1)[C@@H]1CCCN1
k cat/Km [2]: 1500 M⁻¹ s⁻¹

NC(N)=NCCC[C@@H](N)C(=O)Nc1ccc([N+](=O)[O-])cc1
k cat/Km [2]: 750 M⁻¹ s⁻¹

COC(=O)C(S)[C@H](N)Cc1ccccc1 (stereo partly specified)
IC50 [1]: > 250 µM

C[C@@H](N)C(=O)Nc1ccc([N+](=O)[O-])cc1
k cat/Km [2]: 1200 M⁻¹ s⁻¹

NCCCC[C@@H](N)C(=O)Nc1ccc([N+](=O)[O-])cc1
k cat/Km [2]: 350 M⁻¹ s⁻¹

COC(=O)C(S)[C@@H](N)Cc1ccccc1 (stereo partly specified)
IC50 [1]: ~250 µM

COC(=O)[C@H](O)[C@@H](N)Cc1ccccc1
IC50 [1]: > 500 µM

NC(Cc1ccccc1)P(=O)(O)NCC(=O)O (stereo unspecified)
IC50 [1]: ~200 µM

CCOC(=O)CC(F)(F)C(=O)/C=C/c1ccccc1
IC50 [1]: > 5000 µM

N[C@H](Cc1ccccc1)[C@H](O)C(=O)NCCC(=O)O
IC50 [1]: ~100 µM

N[C@@H](Cc1ccccc1)[C@H](O)C(=O)O
IC50 [1]: > 1000 µM

C[C@H](CS)C(=O)N1CCC[C@H]1C(=O)O [CAPTOPRIL]
IC50 [1]: 0.07 µM

COC(=O)[C@H](O)[C@H](N)Cc1ccccc1
IC50 [3]: No inhibition

CC(C)CC(N)C(=O)Nc1ccc([N+](=O)[O-])cc1 (single isomer, unassigned)
k cat/Km [2]: 500 M⁻¹ s⁻¹

COC(=O)[C@@H](O)[C@H](N)Cc1ccccc1
IC50 [3]: No inhibition

N[C@H](Cc1ccccc1)[C@H](O)C(=O)O
IC50 [3]: No inhibition

CCCCC/C=C\C\C=C/C=C/C=C/[C@@H]1O[C@H]1CCCC(=O)O
k cat/Km [2]: 90000 M⁻¹ s⁻¹

B1: Leukotriene A-4 hydrolase (Homo sapiens), P09960 (protein)
chain: MPEIVDTCSLASPASVCRTKHLHLRCSVDFTRRTLTGTAALTVQSQEDNLRSLVLDTKDLTIEKVVINGQEVKYALGERQSYKGSPMEISLPIALSKNQEIVIEISFETSPKSSALQWLTPEQTSGKEHPYLFSQCQAIHCRAILPCQDTPSVKLTYTAEVSVPKELVALMSAIRDGETPDPEDPSRKIYKFIQKVPIPCYLIALVVGALESRQIGPRTLVWSEKEQVEKSAYEFSETESMLKIAEDLGGPYVWGQYDLLVLPPSFPYGGMENPCLTFVTPTLLAGDKSLSNVIAHEISHSWTGNLVTNKTWDHFWLNEGHTVYLERHICGRLFGEKFRHFNALGGWGELQNSVKTFGETHPFTKLVVDLTDIDPDVAYSSVPYEKGFALLFYLEQLLGGPEIFLGFLKAYVEKFSYKSITTDDWKDFLYSYFKDKVDVLNQVDWNAWLYSPGLPPIKPNYDMTLTNACIALSQRWITAKEDDLNSFNATDLKDLSSHQLNEFLAQTLQRAPLPLGHIKRMQEVYNFNAINNSEIRFRWLRLCIQSKWEDAIPLALKMATEQGRMKFTRPLFKDLAAFDKSHDQAVRTYQEHKASMHPVTAMLVGKDLKVD
Vmax (nM min-1 mg-1) [4]: 572
Vmax (nM min-1 mg-1) [5]: 130
Vmax (nM min-1 mg-1) [6]: 140
Vmax (nM min-1 mg-1) [7]: 130
Vmax (nM min-1 mg-1) [8]: 0
Vmax (nM min-1 mg-1) [9]: 530
Vmax (nM min-1 mg-1) [10]: 30
Km [11]: 7.6 µM
Km [12]: 500 µM
Km [13]: 300 µM
Km [14]: 200 µM
Km [15]: 100 µM
Km [16]: 100 µM
